This is an account of results in US12577232B2, “N-heterocycle substituted tryptamine derivatives and methods of using” (ENVERIC B[…] INC., priority 2024, dated 2026).

Like-named read-outs stand apart in the source and are kept apart here.

The target in data set [1] is T1, human serotonin transporter (SERT) (Homo sapiens, UniProt P31645).
T1 construct: purchased PerkinElmer RBHSTM400UA
In words: biochemical. Format: binding. The note with it: 1 nM imipramine; membranes containing human SERT; read-out: SERT, Ki. Here is the method:
A commonly applied SERT binding assay involves competition binding assays employing radiolabelled ligands. […] Radioactive binding assays were carried out using the Scintillation Proximity Assay (SPA). For saturation binding assay, mixtures of 9 μg of membrane containing human SERT was pre-coupled to 1 mg of SPA beads at room temperature in a tube rotator for 1 hour in binding buffer (50 mM Tris-HCl pH7.4, 120 mM NaCl, 5 mM KCl, 1 mM ascorbic acid, 10 μM pargyline HCl). […] After incubation, the samples are read on a MicroBeta 2 Microplate Counter. Non-specific binding was carried out in the presence of 200 μM of clomipramine hydrochloride (C7291-1G, Sigma). Equilibrium binding constant for imipramine (KD) was determined from saturation binding curve using one-site saturation binding analysis from GraphPad PRISM software (Version 9.2.0). All test compounds were dissolved to 100 mM in DMSO and dilutions were carried out in assay buffer. […] Ki values were calculated from the competition displacement data using the competitive binding analysis from GraphPad PRISM software. […] Vehicle (DMSO) without drug was used as a negative control.

Data set [2] in a line: Mouse plasma pharmacokinetics (PK) survey. It is filed as in vivo. The note with it: for AUC: male, C57BL6, mouse, read-out: AUCt0-tlast; for AUC / Cmax: ip; for Cmax: mouse. Here is the method:
The purpose of the study was to gain insight into the pharmacokinetic (PK) behaviour of drugs in rodents. In some contexts, drug exposure and other PK parameters may be linked to the onset and/or degree of drug efficacy. Toward the goal of assessing PK behaviour, objectives included the collection of plasma from male mice at various times after (1) a single ‘low’ IP (intraperitoneal) dose (4 mg/kg), and (2) a single ‘high’ IP dose (10 mg/kg) of drug for pharmacokinetic monitoring. The experiment was designed to enable the determination of key parameters (e.g., Cmax, AUC) and was conducted in partnership with Inotiv (Boulder, Colorado; www.inotiv.com; Studies 3533-2302132 and 3533-2302538).
The study which took part in two phases (No. 3533-2302132 and 3533-2302538) was conducted by CRO Inotiv (Boulder, CO) and was performed in accordance with the test facility standard operation procedures (SOPs), the World Health Organization Quality Practices in Basic Biomedical Research guidelines, and in compliance with all US state and federal regulations, including USDA Animal Welfare Act 9 CFR Parts 1-3. Federal Register 39129, Jul. 22, 1993. All mice were male, belonging to stain C57BL6 (supplier Envigo). Upon arrival at the facility, the mice were 6 weeks old and were acclimated 7 days prior to injection with food and water ad libitum (3 animals/cage).
Three cohorts of mice were included (n=6 per cohort): (1) control (vehicle treatment), (2) 4 mg/kg compound (XV), and (3) 10 mg/kg compound (XV). On day 0 of the study, animals were randomized into cohorts based on body weight. Dosing (i.p. dose route) was performed on Day 1. Sampling of plasma was performed under anesthesia (inhaled isoflurane) on 3 of 6 animals per cohort at 6 time points (15 min 30 min, 1 h, 2 h, 4 h, and 6 h post-dose) followed by sacrifice at 8 h post-dose, ex-sanguination and final plasma collection. Whole blood (100 μL) was collected for plasma preparation using K2EDTA on ice (centrifugation within 5 min of collection), for a final plasma volume of 50 μL. Samples were stored at −80° C. until analysis.
Bioanalytical analysis of plasma was carried out using standard LC-MS/MS procedures. Prior to analysis of plasma, drug-specific quantification metrics (e.g., standard curve, LOD, Rt) were pre-established using authentic standard (>95%). Calculated concentrations (ng/mL) of analyte were used to determine PK parameters (Cmax, AUC) within the limits of detection (LOD).

Where [3] appears, read: plasma, 4 mg/kg, male C57BL6 mice, plasma, 4 mg/kg i.p.
[4] abbreviates: plasma, 10 mg/kg, male C57BL6 mice, plasma, 10 mg/kg i.p.
[5] abbreviates: male C57BL6 mice, plasma, 4 mg/kg i.p.
Setting [6] is: male C57BL6 mice, plasma, 10 mg/kg i.p.

T1 sequence (P31645 whole entry): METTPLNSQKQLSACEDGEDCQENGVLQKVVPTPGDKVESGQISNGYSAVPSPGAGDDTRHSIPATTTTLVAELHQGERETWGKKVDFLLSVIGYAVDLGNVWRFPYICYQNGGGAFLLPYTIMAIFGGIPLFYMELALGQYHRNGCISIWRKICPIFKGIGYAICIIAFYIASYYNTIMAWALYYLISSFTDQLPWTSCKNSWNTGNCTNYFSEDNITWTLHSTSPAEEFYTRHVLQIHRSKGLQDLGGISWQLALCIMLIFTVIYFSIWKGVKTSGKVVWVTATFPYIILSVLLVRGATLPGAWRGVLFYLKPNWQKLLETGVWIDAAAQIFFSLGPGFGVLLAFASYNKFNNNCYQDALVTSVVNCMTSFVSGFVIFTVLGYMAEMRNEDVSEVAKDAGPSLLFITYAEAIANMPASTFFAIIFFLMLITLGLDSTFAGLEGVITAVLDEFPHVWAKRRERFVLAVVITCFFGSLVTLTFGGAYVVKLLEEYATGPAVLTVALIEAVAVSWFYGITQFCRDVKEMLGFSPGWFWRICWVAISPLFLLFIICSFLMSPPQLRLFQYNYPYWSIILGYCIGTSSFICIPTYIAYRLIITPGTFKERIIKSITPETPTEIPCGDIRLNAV

As a reminder, the Ki is the dissociation constant of the complex between target and ligand, obtained from inhibition or displacement. What is called Cmax is the peak of the concentration-time curve. As for `CN(C)CCc1c[nH]c2cc(N3CCCC3)cc(F)c12` [Compound (XVIII)], the Ki in data set [1] was found to be 39.2 µM. The AUC in data set [2] (setting [3]) was 19.6 ± 0.7 ng·h/mL; in data set [2] (setting [4]) it was 76.4 ± 11.5 ng·h/mL. In addition, the values for the maximum concentration (Cmax) in data set [2] (setting [5]) and in data set [2] (setting [6]) were 8.8 ± 1.2 ng/mL and 87.5 ± 8.5 ng/mL, respectively.

As for `CC(C)N(C)CCc1c[nH]c2cc(N3CCOCC3)c(F)cc12` [Compound (XVII)], the AUCt0-tlast in data set [2] (male C57BL6 mice, plasma, 4 mg/kg i.p., 4 mg/kg) came out at 27.2 ± 1.6 ng·h/mL. For the same molecule, the AUC in data set [2] (setting [3]) is 24.2 ± 1.6 ng·h/mL; in data set [2] (setting [4]) it was 164 ± 7.2 ng·h/mL. Also, the results for the Cmax in data set [2] (setting [5]) and in data set [2] (setting [6]) were 62.1 ± 3.9 ng/mL and 384 ± 14.2 ng/mL, respectively.

Turning to `CN(C)CCc1c[nH]c2cc(F)cc(N3CCOCC3)c12` [Compound (XV)], the Ki in data set [1] turned out to be 9.13 µM. In addition, the values for the AUC in data set [2] (setting [3]) and in data set [2] (setting [4]) were 241 ± 71.6 ng·h/mL and 590 ± 30.9 ng·h/mL, respectively. Further, the detectability in plasma result in data set [2] (most mice, eight hours post-administration, i.p.) is reported as “still detectable”. Further, the peak concentration (Cmax) turned out to be 101 ± 4.9 ng/mL in data set [2] (setting [5]) and 459 ± 16.4 ng/mL in data set [2] (setting [6]).

With `CN(C)CCc1c[nH]c2cc(N3CCC3)ccc12` [Compound (XII)], the Ki in data set [1] was 1.68 µM. Further, the AUC was determined as 39.7 ± 3 ng·h/mL in data set [2] (setting [3]) and 145 ± 5.3 ng·h/mL in data set [2] (setting [4]). The values for the Cmax in data set [2] (setting [5]) and in data set [2] (setting [6]) were 92.8 ± 17.2 ng/mL and 302 ± 33.7 ng/mL, respectively.
